One data set concerns gastrin. As to the kind of experiment: Serum gastrin after intraluminal delivery of cysteamine (radioimmunoassay). It is filed as in vivo, human. From the text:
(§1) Immediately proximal to the balloon was an infusion port (1 mm diameter) through which the drug was delivered. […] On day 1 of the study, the nasoenteric tube was inserted into the stomach. By day 3 of the study the tube had passed into the proximal small intestine (SI) just distal to the ligament of Treitz (confirmed fluoroscopically). The balloon was then inflated, and peristalsis propelled the tube distally. Tube position within the cecum was confirmed fluoroscopically on day 5 (day 7 in 4 patients because of slow transit). If the tube had migrated too far, it was retracted into the desired location.
(§2) After an overnight fast (except for water) blood samples were taken at baseline and at varying intervals after intraluminal delivery of cysteamine. […] Gastrin was measured in picograms/mL with the Diagnostic Products Corporation (Los Angeles, Calif.) gastrin radioimmunoassay-assay kit. Leukocyte cystine levels were measured in nmol half-cystine per mg protein by the Cystine Determination Lab (La Jolla, Calif.).
REML repeated measures analyses of variance were also performed as described above on gastrin levels. […] A 5% significance level was used without adjustment for all statistical testing.

The subject of data set [1] is leukocyte cystine. The settings on record: cited from earlier work.
Data set [2] in a line: Plasma cysteamine after delivery of cysteamine through a nasoenteric tube into stomach, small intestine or cecum. It counts as in vivo. The note with it: human, 10 mg/kg/dose of base, Mean plasma cysteamine Cmax. The method, then:
Adult control patients were recruited locally. […] None of the patients had undergone kidney transplantation. Baseline chemistry, Helicobacter pylori serologic study, complete blood count, and urinalysis were performed.
as §1, §2
Differences between means for the 3 sites were tested, plus group and group x site interaction effects for the combined groups. If a site effect was detected, Tukey's HSD was applied to determine which sites differed from each other.

The nature of data set [3]: Symptoms after intraluminal cysteamine delivery. It is filed as in vivo, human. The note with it: cystinosis subject.
Text: as §1
Only 2 patients (1 male, 1 female) with cystinosis reported regular GI symptoms before the study, and these had responded to acid-suppression therapy. […] No other symptoms were reported after any other cysteamine delivery in the children with cystinosis. There were no associated adverse events with tube placement or removal.

Data set [4] deals with leukocyte cystine. As to the kind of experiment: Leukocyte cystine levels after intraluminal delivery of cysteamine in patients with cystinosis. It counts as in vivo, human.
Text: as §1, §2
AOC is computationally analogous to area under the curve, but it is applied when values are predominantly decreasing below baseline values. Large AOC values reflect large decreases, and a negative AOC reflects a net increase in value. Main effects for site of delivery, time after delivery, and the interaction between site and time were tested, except just the site effect was tested for AOCs. In the absence of significant interaction when a main effect was detected, Tukey's honestly significant difference test (HSD) was applied to identify where differences occurred within a 5% family wise error rate. The Tukey HSD procedure controls for overall significance level when performing all pairwise comparisons.

In data set [5] the test system is mice with the gene mutation for Huntington's disease. The settings on record: mouse, in vivo; cited from earlier work.
The conditions of data set [6]: children with cystinosis; cited from earlier work.

Some results are limits rather than exact numbers.

`NCCS` [cysteamine]: the “Gastrin level after gastric cysteamine” value with gastrin (1 child with severe GI symptoms, 30 minutes after gastric delivery, baseline 70 pg/mL) is listed as 121 pg/mL. For the same compound, the “Gastrin levels, baseline and post-cysteamine (undetectable)” value with gastrin (control group, more than half of the levels, any delivery site) is reported as less than 25 pg/mL. Besides, the Period of activity with leukocyte cystine [1] (oral Cystagon capsules) was 5 to 6 h. The “Time leukocyte cystine level remained suppressed” value in the data set with leukocyte cystine [1] (single dose administered intravenously) is on record as “more than 24 hours”. In the data set on leukocyte cystine [1] (taken regularly, measured in circulating white blood cells), the “Depletion of intracellular cystine” value was “up to 90%”. Further, the Cmax came to 22.5 µM in data set [2] (other: infused through nasoenteric tube into cecum, combined cystinosis and control subjects, delivery into cecum); 23.1 µM in data set [2] (other: infused through nasoenteric tube into cecum, control subjects, delivery into cecum); 21.9 µM in data set [2] (other: infused through nasoenteric tube into cecum, cystinosis subjects, delivery into cecum); 53.2 µM in data set [2] (other: infused through nasoenteric tube into small intestine, combined cystinosis and control subjects, delivery into small intestine); 51.1 µM in data set [2] (other: infused through nasoenteric tube into small intestine, control subjects, delivery into small intestine); 55.8 µM in data set [2] (other: infused through nasoenteric tube into small intestine, cystinosis subjects, delivery into small intestine). The Cmax in data set [2] (other: infused through nasoenteric tube into stomach, combined cystinosis and control subjects, delivery into stomach) came out at 37.8 µM; in data set [2] (other: infused through nasoenteric tube into stomach, control subjects, delivery into stomach) it was 39.5 µM; in data set [2] (other: infused through nasoenteric tube into stomach, cystinosis subjects, delivery into stomach), 35.5 µM. The “Symptoms after infusion into the proximal small intestine” value in data set [3] is reported as “did not have any symptoms”. Further, in data set [3] (about 15 minutes after delivery), the “Symptoms after intragastric cysteamine” value was “severe retching and emesis”. Also, the “Time leukocyte cystine levels remained at the 1-hour level” value with leukocyte cystine [4] (after delivery, at 48 hours not returned to pre-cysteamine level) was determined as 24 h. Further, in the data set with leukocyte cystine [4] (single dose of cysteamine into the small intestine (FIG. 3)), the “Time leukocyte cystine levels remained below pre-delivery levels” value was “up to 12 hours”. For the same compound, the “Decrease in leukocyte cystine after cysteamine delivery” value in the data set on leukocyte cystine [4] (within an hour of delivery) is on record as “dramatic decrease in leukocyte cystine”.

On to `NCCSSCCN` [Cystamine, cystamine], for which the “Effect in mice with the gene mutation for Huntington's disease” value in data set [5] is “alleviate tremors and prolong life”.

`COc1ccc2c(c1)c(CC(=O)O)c(C)n2C(=O)c1ccc(Cl)cc1` [indomethacin]: in data set [6], the “Reduction of urine volume and liquid consumption” value is listed as “about 30%”.
